Measured values from article PMC9743093 (Journal of Medicinal Chemistry, 2022).
Where a SMILES comes first, the peptide text is derived from it. The star is where a group is joined. Cbz = O=C(OCc1ccccc1)*

How the values were obtained:
IDO1 [1] = target: T1, IDO1 (Homo sapiens, UniProt P14902); assay: IDO1 degradation by western blot in IFNγ-stimulated U87 cells; settings: for effect of co-treatment on NU223612-induced IDO1 degradation: combined with NU223612; for effect on IDO1 protein levels: U87 and GBM43 GBM cells in vitro, western blot
T1 sequence (P14902 whole entry): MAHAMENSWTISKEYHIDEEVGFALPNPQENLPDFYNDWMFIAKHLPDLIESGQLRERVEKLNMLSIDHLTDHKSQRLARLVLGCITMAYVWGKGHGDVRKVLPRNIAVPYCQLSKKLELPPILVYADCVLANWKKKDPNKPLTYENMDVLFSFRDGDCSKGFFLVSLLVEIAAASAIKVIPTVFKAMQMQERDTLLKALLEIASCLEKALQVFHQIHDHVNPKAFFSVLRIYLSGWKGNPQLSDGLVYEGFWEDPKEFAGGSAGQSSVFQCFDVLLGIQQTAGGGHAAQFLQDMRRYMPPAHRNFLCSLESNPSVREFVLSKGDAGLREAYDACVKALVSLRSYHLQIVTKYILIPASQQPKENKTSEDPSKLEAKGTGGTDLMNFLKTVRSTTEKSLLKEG

IDO1 [2] = target: T1, IDO1; assay: IDO1 ubiquitination assay in U87 IDO1-FLAG cDNA-expressing cells; assay type: cell-based; settings: immunoprecipitation, vs DMSO
IDO1 [3] = assay: IDO1 degradation by western blot in further cancer cell lines; assay type: cell-based, human; settings: CD18, PANC-1, OVCAR5, SKOV3, PC3, GL261 IDO1-O/E; 24 h
IDO1 [4] = target: T1, IDO1; assay: BLI binding of compounds to immobilized IDO1
IDO1 [5] = target: T1, IDO1; assay: IDO1 degradation by western blot in IFNγ-stimulated GBM43 cells; settings: 24 h, 0.01-30 μM, n = 3
TDO2 = TDO2 (Homo sapiens, UniProt P48775); assay: TDO2 western blot in U87 cells; assay type: cell-based; settings: 24 h
Sequence of TDO2 (P48775 whole entry): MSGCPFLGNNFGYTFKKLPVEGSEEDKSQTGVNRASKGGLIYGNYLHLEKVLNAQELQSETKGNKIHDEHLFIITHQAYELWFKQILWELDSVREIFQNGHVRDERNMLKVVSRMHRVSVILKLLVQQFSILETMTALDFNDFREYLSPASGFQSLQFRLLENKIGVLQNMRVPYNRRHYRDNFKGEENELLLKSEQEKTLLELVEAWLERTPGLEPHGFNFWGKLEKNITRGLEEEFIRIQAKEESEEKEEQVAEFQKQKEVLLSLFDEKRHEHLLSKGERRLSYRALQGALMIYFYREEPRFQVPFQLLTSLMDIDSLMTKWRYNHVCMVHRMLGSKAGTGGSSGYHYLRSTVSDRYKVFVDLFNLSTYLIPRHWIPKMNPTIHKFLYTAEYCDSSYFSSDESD

IDO1 enzyme activity = IDO1 enzyme activity (Homo sapiens, UniProt P14902); assay: Kynurenine assay; assay type: cell-based; settings: IFNγ-stimulated GBM cells (U87, GBM43), 24 h
Sequence of IDO1 enzyme activity (P14902 whole entry): as the sequence (P14902 whole entry) above

GL261-luc. cells = assay: Survival of mice with intracranial GL261-luc. tumors; assay type: in vivo, C57BL/6 mice; settings: 25 mg/kg once per day Monday-Friday up to 3 weeks, from day 14 post-injection
IDO1 [6] = target: T1, IDO1; assay: IDO1 degradation by western blot in patient PBMCs; assay type: cell-based; settings: GBM patient-isolated PBMCs, 50 ng/mL IFNγ
IDO1 [7] = target: IDO1 (Mus musculus, UniProt P28776); assay: Pharmacodynamics: IDO1 western blot of intracranial GL261 mIDO1 tumors; settings: GL261 mIDO1 cDNA tumors, single 25 mg/kg ip.
Sequence of IDO1 (Mus musculus, UniProt P28776) (P28776 whole entry): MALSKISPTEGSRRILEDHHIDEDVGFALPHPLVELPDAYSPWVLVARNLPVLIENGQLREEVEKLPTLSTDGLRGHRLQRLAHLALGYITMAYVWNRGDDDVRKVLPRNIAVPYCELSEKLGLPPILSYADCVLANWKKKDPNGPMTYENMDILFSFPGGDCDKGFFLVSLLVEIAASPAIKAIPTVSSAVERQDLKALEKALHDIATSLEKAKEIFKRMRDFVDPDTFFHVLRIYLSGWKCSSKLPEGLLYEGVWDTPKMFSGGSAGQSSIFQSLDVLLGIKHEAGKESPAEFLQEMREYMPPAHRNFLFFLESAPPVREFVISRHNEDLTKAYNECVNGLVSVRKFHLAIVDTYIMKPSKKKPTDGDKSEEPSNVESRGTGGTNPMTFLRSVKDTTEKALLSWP

[8] = target: NU223612/IDO1/CRBN ternary complex (Homo sapiens, UniProt P14902+Q96SW2); assay: BLI of NU223612 pre-incubated with CRBN binding to IDO1
Sequence of NU223612/IDO1/CRBN ternary complex (P14902 whole entry): as the sequence (P14902 whole entry) above
Sequence of NU223612/IDO1/CRBN ternary complex (Q96SW2 whole entry): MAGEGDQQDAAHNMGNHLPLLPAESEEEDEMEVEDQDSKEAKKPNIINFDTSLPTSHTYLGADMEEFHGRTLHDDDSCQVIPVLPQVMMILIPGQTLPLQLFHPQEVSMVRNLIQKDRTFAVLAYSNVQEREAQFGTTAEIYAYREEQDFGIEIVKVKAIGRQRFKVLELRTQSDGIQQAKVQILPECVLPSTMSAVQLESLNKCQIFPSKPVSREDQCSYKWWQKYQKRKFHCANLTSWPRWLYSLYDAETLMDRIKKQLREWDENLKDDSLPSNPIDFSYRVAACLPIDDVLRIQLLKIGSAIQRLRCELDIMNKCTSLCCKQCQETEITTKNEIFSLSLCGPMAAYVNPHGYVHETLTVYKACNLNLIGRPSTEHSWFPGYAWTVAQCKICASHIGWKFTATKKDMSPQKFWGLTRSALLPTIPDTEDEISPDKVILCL

IDO2 = assay: IDO1/IDO2 mRNA expression in GL261 cells; assay type: cell-based, mouse; settings: 10 µM, 24 hours
[9] = tested on: NF-κB p65 DNA binding activity; assay: NF-κB; assay type: cell-based, human; settings: U87 nuclear extracts, 10 μM
[10] = Pharmacokinetics in C57BL/6 mice; assay type: in vivo; settings: mouse, single 25 mg/kg ip.
[11] = tested on: NF-κB p65 phosphorylation; assay: NF-κB p65 phosphorylation by western blot; assay type: cell-based, human; settings: IFNγ-stimulated U87, GBM43 or MDA-MB-231 cells
[12] = In vivo toxicity in C57BL/6 mice
CRBN = CRBN (Homo sapiens, UniProt Q96SW2); assay: BLI binding of compounds to immobilized CRBN; settings: steady-state, 30 °C, PBS with 0.5% DMSO
Sequence of CRBN (Q96SW2 whole entry): as above

## CC(C)C[C@@H](C=O)NC(=O)[C@H](CC(C)C)NC(=O)[C@H](CC(C)C)NC(=O)OCc1ccccc1 [MG132, reference compound] (Cbz-Leu-Leu-Leu-aldehyde)
IDO1 [1]; U87 cells
  effect of co-treatment on NU223612-induced IDO1 degradation: ablation of IDO1-PROTAC-mediated IDO1 protein degradation

## NS(=O)(=O)OC[C@@H]1C[C@@H](n2ccc3c(N[C@H]4CCc5ccccc54)ncnc32)C[C@@H]1O [MLN4924, reference compound]
IDO1 [1]; U87 cells
  effect of co-treatment on NU223612-induced IDO1 degradation: ablation of IDO1-PROTAC-mediated IDO1 protein degradation

## C[C@@H](C(=O)Nc1ccc(OC2CCN(C(=O)CCOCCOCCNc3cccc4c3C(=O)N(C3CCC(=O)NC3=O)C4=O)CC2)cc1)[C@H]1CC[C@@H](c2ccnc3ccc(F)cc32)CC1 (stereo partly drawn) [NU223612, (2R)-N-(4-((1-(3-(2-(2-((2-(2,6-Dioxopiperidin-3-yl)-1,3-dioxoisoindolin-4-Yl)amino)ethoxy)ethoxy)propanoyl)piperidin-4-yl)oxy)phenyl)-2-((1S,4S)-4-(6-fluoroquinolin-4-yl)cyclohexyl)propenamide]
IDO1 [2]
  ubiquitination of IDO1: causes monoubiquitination of IDO1
IDO1 [1]
  effect on IDO1 protein levels: decreases IDO1 protein levels dose-dependently
IDO1 [1]; U87 cells transfected with enzyme-null IDO1 cDNA, 24 h
  degradation of catalytically inactive mutant IDO1: facilitated protein degradation of IDO1 enzyme-dead protein
IDO1 [1]; U87 cells, 100 nM, 24 h
  IDO1 protein degradation at 100 nM: significant IDO1 protein degradation
IDO1 [1]; U87 cells, 1 and 10 μM
  duration of IDO1 degradation after a single continuous treatment: up to 72 h
IDO1 [1]; U87 cells, IFNγ-stimulated, 24 h, 0.01-30 μM, n = 3
  DC50: 329 nM
IDO1 [1]; U87 cells, cultured without compound up to 48 h
  effect of washout after 24 h on IDO1 degradation: did not affect the degradation of IDO1 protein
IDO1 [1]; U87 cells, subcellular fractions
  nuclear and cytoplasmic IDO1 degradation: equally degraded IDO1 protein levels in both the cytoplasmic and nuclear intracellular compartments
IDO1 [1]; human GBM cells (U87, GBM43)
  duration of IDO1 degradation effect: at least 96 h
  time at which IDO1 degradation began after treatment initiation: 16 h
IDO1 [3]
  IDO1 degradation in other cancer cell types: dose-dependently degrades IDO1 in all of the human cancer cell types that were analyzed
IDO1 [4]; read-out: koff, NU223612/IDO1 binary complex
  koff: 0.042 s⁻¹
IDO1 [4]; read-out: kon, NU223612/IDO1 binary complex
  kon: 68900 M⁻¹ s⁻¹
IDO1 [5]
  DC50: 544 nM
TDO2
  effect on TDO2 protein levels: did not decrease TDO2 protein levels
IDO1 enzyme activity
  IDO1 enzyme activity (Kyn levels): dose-dependently inhibits IDO1 enzyme activity
GL261-luc. cells
  longer-term survival post-tumor cell injection: up to 45 days
IDO1 [6]
  IDO1 degradation in PBMCs: degrades IDO1 protein
IDO1 [7]
  time IDO1 protein remains low in intracranial tumors: up to 24 h
IDO1 [7]; within 2 h post-treatment
  decrease of IDO1 protein in intracranial tumors: > 70%
[8]
  Kd: 117 nM
  cooperativity α = Kd binary/Kd ternary: 2.5
[8]; read-out: koff, ternary NU223612/CRBN/IDO1 complex
  koff: 0.0015 s⁻¹
[8]; read-out: kon, ternary NU223612/CRBN/IDO1 complex
  kon: 12800 M⁻¹ s⁻¹
IDO2
  IDO2 (and IDO1) mRNA expression levels: no significant NU223612 effects on glioma cell IDO2 expression levels
[9]
  NF-κB p65 transcription factor DNA binding activity: inhibits both IDO1-mediated tryptophan metabolism as well as IDO1 non-enzyme-mediated NF-κB p65 transcription factor DNA binding activity
[10]
  Cmax, brain: 2000 nM
[11]
  p65 phosphorylation: decreases p65 phosphorylation
[12]; 100 mg/kg ip. 5 days/week for 3 weeks
  mortality: increased mortality
[12]; 50 and 100 mg/kg doses ip.
  precipitation of compound in the abdomen: precipitation of NU223612 observed around the intestines, liver, and pancreas
[12]; after 3 weeks ip., mice without brain tumors, mass spectrometry
  accumulation in serum and brain tissue: dose-dependent accumulation of NU223612 in serum and brain tissue
[12]; ip. 5 days/week for 3 weeks, 10, 25, 50 or 100 mg/kg
  body-weight changes: did not result in significant body-weight changes at any dose

## C[C@@H](C(=O)Nc1ccc(Cl)cc1)[C@H]1CC[C@@H](c2ccnc3ccc(F)cc32)CC1 [NU223618, reference compound]
[11]
  p65 phosphorylation: neither NU226211 nor NU223618 inhibits NF-κB phosphorylation

## C[C@@H](C(=O)Nc1ccc(OC2CCN(C(=O)CCOCCOCCNc3cccc4c3C(=O)N(C3CCC(=O)N(C)C3=O)C4=O)CC2)cc1)[C@H]1CC[C@@H](c2ccnc3ccc(F)cc32)CC1 (stereo partly drawn) [NU226211, (2R)-2-((1S,4S)-4-(6-Fluoroquinolin-4-yl)cyclohexyl)-N-(4-((1-(3-(2-(2-((2-(1-methyl-2,6-dioxopiperidin-3-yl)-1,3-dioxoisoindolin-4-yl)amino)ethoxy)ethoxy)propanoyl)piperidin-4-yl)oxy)phenyl)propenamide]
IDO1 [2]
  ubiquitination of IDO1: neither NU226211 nor NU223618 mediated the ubiquitination
IDO1 [1]
  effect on IDO1 protein levels: neither NU226211 nor NU223618 decreases IDO1 protein levels
CRBN
  binding affinity (Kd) to CRBN: no measurable binding
[11]
  p65 phosphorylation: neither NU226211 nor NU223618 inhibits NF-κB phosphorylation

## Nc1cccc2c1C(=O)N(C1CCC(=O)NC1=O)C2=O (stereo not shown) [pomalidomide, reference compound]
IDO1 [1]; U87 cells
  effect of co-treatment on NU223612-induced IDO1 degradation: ablation of IDO1-PROTAC-mediated IDO1 protein degradation
